In PubChem BioAssay (NCI) one finds GI50 and TGI data, which are given here for eight molecules.

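Five concentrations, 48 hours, 96-well plates. At the GI50, growth is halved. TGI denotes the concentration required for complete inhibition of growth.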

Assay in all cases: NCI anticancer screen, dose series, 48 h
Test [1] relates to 786-0 renal.
Test [2] relates to DU-145 prostate.
Test [3] concerns HCC-2998 colon.
Test [4] deals with HT29 colon.
Test [5] deals with K-562 leukemia.
The subject of test [6] is MOLT-4 leukemia.
The subject of test [7] is NCI-H23 lung.
Test [8] deals with PC-3 prostate.
Test [9] concerns SNB-19 CNS.
The test system of test [10] is SNB-75 CNS.

For `CCN(CC)c1ccc(/C=C/c2ccc3cc(C)ccc3[n+]2CC)cc1`, the GI50 in test [1] was 0.295 µM; in test [2], 0.0942 µM; in [3], 0.197 µM; in test [4], 0.0771 µM; in [5], 0.036 µM; in test [6] it was 0.161 µM. Also, the GI50 is 0.0303 µM in [7], 0.0664 µM in [8], 0.0621 µM in [9] and 0.161 µM in [10]. Besides, the TGI in test [1] turned out to be 6.46 µM; in test [2], 12.7 µM; in test [3] it was 15.3 µM; in [4], 2.19 µM; in test [5], 13.5 µM; in [6], 2.65 µM. Besides, the TGI stood at 12.5 µM in test [7], 6.17 µM in test [8], 13.4 µM in [9] and 6.24 µM in test [10].
For `N#CSc1c[nH]c2cccc(/C=C/C(=O)/C=C(/C=C/c3cccc4[nH]cc(SC#N)c34)OB(F)F)c12`, the GI50 in test [1] was 0.344 µM; in test [2], 1.1 µM; in [3], 2.59 µM; in test [4], 0.386 µM; in [5], 0.297 µM; in test [6] it was 0.302 µM. Besides, the GI50 in [7] is 0.755 µM; in [8], 0.419 µM; in test [9], 2.33 µM; in test [10] it was 2.18 µM. Moreover, the TGI is 2.06 µM in test [1]; 2.63 µM in [2]; 6.89 µM in test [3]; 2.26 µM in test [4]; 1.38 µM in test [5]; 3.14 µM in test [6]. Moreover, the TGI worked out at 3.29 µM in [7], 4.19 µM in [8], 14.7 µM in test [9] and 7.55 µM in test [10].
Regarding `N#Cc1ccc(NC(=O)Nc2ccc(Oc3ccc(NC(=O)Nc4ccc(C#N)cc4)cc3)cc2)cc1`, the GI50 in [1] was 10.5 µM; in test [2] it was 31.2 µM; in test [3], 0.764 µM; in [4], 90 µM; in test [5], 2.11 µM; in test [6] it was 1.12 µM. Besides, the GI50 in [7] is 6.53 µM; in test [8] it was 25.6 µM; in test [9], 20 µM; in test [10] it was 4.14 µM. Moreover, the TGI was 63.4 µM in test [1]; > 100 µM in test [2]; 7.53 µM in test [3]; > 100 µM in test [4]; > 100 µM in test [5]; 37.7 µM in [6]. The TGI in test [7] was 56.5 µM; in [8] it was > 100 µM; in test [9], 88.7 µM; in test [10], 24.4 µM.
As to `C=CCCCCCCCCC(=O)[O][Sn]([CH2]CCC)([CH2]CCC)[CH2]CCC`, the GI50 was 0.143 µM in test [1]; 0.15 µM in test [2]; 0.156 µM in [3]; 0.154 µM in [4]; 0.181 µM in test [5]; 0.228 µM in [6]. For the same molecule, the GI50 in test [7] was 0.115 µM; in test [8], 0.187 µM; in test [9] it was 0.198 µM; in test [10] it was 0.134 µM. Also, the TGI in test [1] was found to be 0.275 µM; in [2] it was 0.29 µM; in test [3], 0.291 µM; in [4], 0.332 µM; in [5], 0.457 µM; in test [6] it was 0.833 µM. In addition, the TGI in test [7] stood at 0.254 µM; in test [8], 0.409 µM; in test [9], 0.384 µM; in [10] it was 0.326 µM.
For `COc1ccc(/C=C/c2nccc3ccccc23)cc1OC`, the TGI in test [1], in test [2], in test [3], in test [4], in [5] and in test [6] was > 10 µM each time. Further, the TGI in test [7], in [8], in test [9] and in test [10] was > 10 µM throughout.
As to `Oc1c(CN2CCC(N3CCCCC3)CC2)cc(Cc2cc(CN3CCC(N4CCCCC4)CC3)c(O)c3ncccc23)c2cccnc12`, the GI50 was 1.53 µM in test [1]; 0.871 µM in test [2]; 1.19 µM in [3]; 1.07 µM in test [4]; 0.617 µM in test [5]; 0.3 µM in test [6]. Besides, the GI50 in [7] was 2.28 µM; in [8], 1.28 µM; in test [9], 2.65 µM; in [10] it was 1.65 µM. For the same molecule, the TGI in test [1] was 5.96 µM; in [2], 16.1 µM; in test [3], 6.15 µM; in [4] it was 5.39 µM; in test [5] it was 8.81 µM; in test [6], 6.22 µM. Further, the TGI in test [7] turned out to be 14 µM; in test [8], 15.9 µM; in [9] it was 22.5 µM; in test [10] it was 13.4 µM.
Turning to `COc1ccc(/C(COc2c(-c3ccccc3)oc3ccccc3c2=O)=N\O)cc1`, the GI50 in test [1] is 40.6 µM; in test [2] it was 22 µM; in test [3], 8.42 µM; in test [4] it was 20.7 µM; in test [5] it was 18.9 µM; in test [6], 22.9 µM. Besides, the GI50 in [7] is 24.2 µM; in test [8] it was 13.4 µM; in test [9], 17.5 µM; in test [10], 22.2 µM. Moreover, the TGI in [1] was > 50 µM; in [2] it was > 50 µM; in test [3] it was 22.3 µM; in test [4] it was > 50 µM; in test [5] it was > 50 µM; in [6] it was > 50 µM. In addition, the TGI is > 50 µM in [7], 35.5 µM in test [8], > 50 µM in [9] and > 50 µM in test [10].
For `Oc1ccc(CN2CCC(N3CCCCC3)CC2)c2cccnc12`, the GI50 in test [1] was 19.3 µM; in [2] it was 6.64 µM; in [3], 64.2 µM; in test [4], 93.7 µM; in test [5] it was 2.23 µM; in test [6], 19.9 µM. In addition, the GI50 was 6.05 µM in [7], 7.15 µM in test [8], 21.6 µM in test [9] and 2.85 µM in [10]. Besides, the TGI in test [1], in [2], in test [3], in [4], in [5] and in test [6] was > 100 µM throughout. Also, the TGI in test [7], in [8], in [9] and in [10] was > 100 µM each time.
